Earlier results on one compound are cited in patent publication US11382927B2, “Liquid medicinal preparation” (FUJIFILM Corporation, priority 2016, dated 2022).

The data set relates to tumor. As to conditions: oral administration to mice.

As to `Nc1ccn([C@@H]2S[C@H](CO)[C@@H](O)[C@@H]2F)c(=O)n1` [Compound A, 1-(2-deoxy-2-fluoro-4-thio-β-D-arabinofuranosyl)cytosine], the Antitumor activity entry was “strong antitumor activity”.
